Data as given in PubChem BioAssay AID1259407 (Chemical Carcinogenesis Research Information System (CCRIS), 2018).
The source made the active and inactive calls. The rule behind the calls is not given here.

System: CCRIS mutagenicity, Ames/micronucleus/aberration tests
Assay: CCRIS mutagenicity studies
[1] = Test System: AMES SALMONELLA TYPHIMURIUM, Strain/Indicator: TA98, Metabolic Activation: NONE, Method: STANDARD PLATE
[2] = Test System: AMES SALMONELLA TYPHIMURIUM, Strain/Indicator: TA100, Metabolic Activation: NONE, Method: STANDARD PLATE
[3] = Test System: AMES SALMONELLA TYPHIMURIUM, Strain/Indicator: TA100, Metabolic Activation: RAT, LIVER, S-9, AROCLOR 1254, Method: STANDARD PLATE
[4] = Test System: AMES SALMONELLA TYPHIMURIUM, Strain/Indicator: TA102, Metabolic Activation: NONE, Method: STANDARD PLATE
[5] = Test System: AMES SALMONELLA TYPHIMURIUM, Strain/Indicator: TA102, Metabolic Activation: RAT, LIVER, S-9, AROCLOR 1254, Method: STANDARD PLATE

CCOCCO
mutagenic call (End Point: IN VITRO CHROMOSOMAL ABERRATIONS, Test System: CHINESE HAMSTER OVARY CELLS, Metabolic Activation: RAT, LIVER, S-9, AROCLOR 1254): inactive; negative
mutagenic call (Test System: AMES SALMONELLA TYPHIMURIUM, Strain/Indicator: TA97A, Metabolic Activation: NONE, Method: STANDARD PLATE): inactive; negative
mutagenic call (Test System: AMES SALMONELLA TYPHIMURIUM, Strain/Indicator: TA97A, Metabolic Activation: RAT, LIVER, S-9, AROCLOR 1254, Method: STANDARD PLATE): inactive; negative
mutagenic call (Test System: AMES SALMONELLA TYPHIMURIUM, Strain/Indicator: TA98, Metabolic Activation: HAMSTER, LIVER, S-9, AROCLOR 1254 (10%), Method: PREINCUBATION): inactive; negative
mutagenic call (Test System: AMES SALMONELLA TYPHIMURIUM, Strain/Indicator: TA98, Metabolic Activation: NONE, Method: PREINCUBATION): inactive; negative
mutagenic call [1]: inactive; negative
mutagenic call (Test System: AMES SALMONELLA TYPHIMURIUM, Strain/Indicator: TA98, Metabolic Activation: RAT, LIVER, S-9, AROCLOR 1254 (10%), Method: PREINCUBATION): inactive; negative
mutagenic call (Test System: AMES SALMONELLA TYPHIMURIUM, Strain/Indicator: TA98, Metabolic Activation: RAT, LIVER, S-9, AROCLOR 1254, Method: STANDARD PLATE): inactive; negative
mutagenic call (Test System: AMES SALMONELLA TYPHIMURIUM, Strain/Indicator: TA98, Metabolic Activation: RAT, LIVER, S-9, KC 500, Method: PREINCUBATION): inactive; negative
mutagenic call (Test System: AMES SALMONELLA TYPHIMURIUM, Strain/Indicator: TA100, Metabolic Activation: HAMSTER, LIVER, S-9, AROCLOR 1254 (10%), Method: PREINCUBATION): inactive; negative
mutagenic call (Test System: AMES SALMONELLA TYPHIMURIUM, Strain/Indicator: TA100, Metabolic Activation: NONE, Method: PREINCUBATION): inactive; negative
mutagenic call [2]: inactive; negative
mutagenic call (Test System: AMES SALMONELLA TYPHIMURIUM, Strain/Indicator: TA100, Metabolic Activation: RAT, LIVER, S-9, AROCLOR 1254 (10%), Method: PREINCUBATION): inactive; negative
mutagenic call [3]: inactive; negative
mutagenic call (Test System: AMES SALMONELLA TYPHIMURIUM, Strain/Indicator: TA100, Metabolic Activation: RAT, LIVER, S-9, KC 500, Method: PREINCUBATION): inactive; negative
mutagenic call [4]: inactive; negative
mutagenic call [5]: inactive; negative
mutagenic call (Test System: AMES SALMONELLA TYPHIMURIUM, Strain/Indicator: TA1535, Metabolic Activation: HAMSTER, LIVER, S-9, AROCLOR 1254 (10%), Method: PREINCUBATION): inactive; negative
mutagenic call (Test System: AMES SALMONELLA TYPHIMURIUM, Strain/Indicator: TA1535, Metabolic Activation: NONE, Method: PREINCUBATION): inactive; negative
mutagenic call (Test System: AMES SALMONELLA TYPHIMURIUM, Strain/Indicator: TA1535, Metabolic Activation: RAT, LIVER, S-9, AROCLOR 1254 (10%), Method: PREINCUBATION): inactive; negative
mutagenic call (Test System: AMES SALMONELLA TYPHIMURIUM, Strain/Indicator: TA1535, Metabolic Activation: RAT, LIVER, S-9, KC 500, Method: PREINCUBATION): inactive; negative
mutagenic call (Test System: AMES SALMONELLA TYPHIMURIUM, Strain/Indicator: TA1537, Metabolic Activation: HAMSTER, LIVER, S-9, AROCLOR 1254 (10%), Method: PREINCUBATION): inactive; negative
mutagenic call (Test System: AMES SALMONELLA TYPHIMURIUM, Strain/Indicator: TA1537, Metabolic Activation: NONE, Method: PREINCUBATION): inactive; negative
mutagenic call (Test System: AMES SALMONELLA TYPHIMURIUM, Strain/Indicator: TA1537, Metabolic Activation: RAT, LIVER, S-9, AROCLOR 1254 (10%), Method: PREINCUBATION): inactive; negative
mutagenic call (Test System: AMES SALMONELLA TYPHIMURIUM, Strain/Indicator: TA1537, Metabolic Activation: RAT, LIVER, S-9, KC 500, Method: PREINCUBATION): inactive; negative
mutagenic call (Test System: AMES SALMONELLA TYPHIMURIUM, Strain/Indicator: TA1538, Metabolic Activation: NONE, Method: PREINCUBATION): inactive; negative
mutagenic call (Test System: AMES SALMONELLA TYPHIMURIUM, Strain/Indicator: TA1538, Metabolic Activation: RAT, LIVER, S-9, KC 500, Method: PREINCUBATION): inactive; negative
mutagenic call (Test System: E. COLI, Strain/Indicator: WP2 UVRA, Metabolic Activation: NONE, Method: PREINCUBATION): inactive; negative
mutagenic call (Test System: E. COLI, Strain/Indicator: WP2 UVRA, Metabolic Activation: RAT, LIVER, S-9, KC 500, Method: PREINCUBATION): inactive; negative

CCCOS(=O)(=O)c1ccc(C)cc1
mutagenic call (End Point: IN VITRO MICRONUCLEUS, Test System: MOUSE LYMPHOMA L5178Y CELLS, Metabolic Activation: NONE): inactive; negative; positive results only at highly excessively cytotoxic doses
mutagenic call (End Point: IN VITRO MICRONUCLEUS, Test System: MOUSE LYMPHOMA L5178Y CELLS, Metabolic Activation: RAT, LIVER, S-9): inactive; negative
mutagenic call (End Point: In vitro micronucleus, Test System: Chinese Hamster Ovary (CHO-WBL) cells, Metabolic Activation: None): inactive; negative
mutagenic call [2]: active; positive
mutagenic call (Test System: AMES SALMONELLA TYPHIMURIUM, Strain/Indicator: TA100, Metabolic Activation: RAT, LIVER, S-9, Method: STANDARD PLATE): active; positive

O=C1NS(=O)(=O)c2ccccc21
mutagenic call (Test System: AMES SALMONELLA TYPHIMURIUM, Strain/Indicator: TA97A, Metabolic Activation: NONE, Method: PREINCUBATION): inactive; negative
mutagenic call (Test System: AMES SALMONELLA TYPHIMURIUM, Strain/Indicator: TA97A, Metabolic Activation: RAT, LIVER, S-9, AROCLOR 1254, Method: PREINCUBATION): inactive; negative
mutagenic call (Test System: AMES SALMONELLA TYPHIMURIUM, Strain/Indicator: TA102, Metabolic Activation: NONE, Method: PREINCUBATION): inactive; negative
mutagenic call (Test System: AMES SALMONELLA TYPHIMURIUM, Strain/Indicator: TA102, Metabolic Activation: RAT, LIVER, S-9, AROCLOR 1254, Method: PREINCUBATION): inactive; negative

CC(C)(C)OC(=O)CN=[N+]=[N-]
mutagenic call (Test System: AMES SALMONELLA TYPHIMURIUM, Strain/Indicator: TA100, Metabolic Activation: RAT, LIVER, S-9, PCB, Method: PREINCUBATION): active; positive

CC(=O)ON(OCc1ccccc1)C(=O)c1ccccc1
mutagenic call [1]: active; positive
mutagenic call [2]: active; positive
mutagenic call (Test System: AMES SALMONELLA TYPHIMURIUM, Strain/Indicator: TA100, Metabolic Activation: RAT, S-9, AROCLOR, Method: STANDARD PLATE): active; positive

O=C1C=Cc2c(ccc3c2ccc2ccccc23)C1=O
mutagenic call [1]: inactive; negative
mutagenic call [3]: inactive; negative

CC(=O)O/C=C/Cc1ccc2c(c1)OCO2
mutagenic call (Test System: UDS HUMAN FIBROBLASTS, Strain/Indicator: THY INCORP (NON-S-PHASE), Metabolic Activation: NONE, Method: AUTORADIOGRAPHY): active; positive

N=C(N)c1ccc(-c2cc3ccc(C(=N)N)cc3[nH]2)cc1
mutagenic call [1]: inactive; negative
mutagenic call (Test System: AMES SALMONELLA TYPHIMURIUM, Strain/Indicator: TA98, Metabolic Activation: RAT, LIVER, S-9, PHENOBARBITAL, Method: STANDARD PLATE): inactive; negative
mutagenic call [2]: inactive; negative
mutagenic call (Test System: AMES SALMONELLA TYPHIMURIUM, Strain/Indicator: TA100, Metabolic Activation: RAT, LIVER, S-9, PHENOBARBITAL, Method: STANDARD PLATE): inactive; negative
mutagenic call (Test System: E. COLI, Strain/Indicator: WP2, Metabolic Activation: NONE, Method: PREINCUBATION): inactive; negative

CS(=N)(=O)CCC(N)C(=O)O (stereo not drawn)
mutagenic call [4]: inactive; negative
mutagenic call [5]: inactive; negative

CC(C)OC(=O)/C(Cl)=C(/Cl)C=O
mutagenic call [2]: active; positive
